Legend:
[1] = target: Src (Homo sapiens, UniProt P12931); assay: cell-based
Method: The medium was changed to a serum-free medium and the cells were further incubated for one day. […] The culture medium was removed 5 min later and SDS sample buffer was added to give a cell lysate (200 μL).

[2] = tested on: HER2 high expression human breast cancer cells BT-474; conditions: BT-474, 1 μmol/L, 5 days
Method: After the culture, the culture medium was removed and a cell suspension was prepared by a trypsin treatment and the cells were fixed with 70% ethanol. The DNA of the cells was stained with propidium iodide and the DNA amount was measured by a flow cytometer. The cells with a decreased amount of DNA are apoptotic (cell death) cells.

[3] = target: T1, HER2 (Homo sapiens, UniProt P04626); assay: in vivo
Method: Four hours later, the tumor was sampled and a tumor homogenate was prepared.

[4] = tested on: HER2 high expression human breast cancer cell BT-474; assay: Anti-tumor effect, combined use, BT-474 cancer-bearing nude mice; type: in vivo; conditions: BT-474 nude mice, 5 cases out of 5, same regimens as T/C
Method: An increase in the tumor volume from that before administration to that on the next day of the final administration was compared to that of the control group and anti-tumor effect was studied. In addition, the tumor volume was calculated from the following equation:
Formula: Tumor volume=longer diameter×shorter diameter×shorter diameter×(½)
The ratio of the value obtained by subtracting the tumor volume on the day of administration initiation from the tumor volume on the next day of the completion of the administration in the control group, and the value obtained by subtracting the tumor volume on the day of administration initiation from the tumor volume on the next day of the completion of the administration was determined as a growth rate (T/C (%)).

[5] = tested on: 786-O; assay: cells; conditions: Homo sapiens, 786-0, read-out: Compound B4 IC50 (μmol/L), 786-O
Method: (§1) 1) Cell growth inhibitory action; Each cell line was sown in a 24-well multi-well plate (5×10^4 to 2×10^5 cells/well) and cultured overnight in a carbon dioxide gas incubator (5% CO2, 37° C. ).

[6] = tested on: A549; assay: cells; conditions: Homo sapiens, A549, read-out: Compound B4 IC50 (μmol/L), A549
Method: as §1

[7] = tested on: ACHN; assay: cells; conditions: Homo sapiens, read-out: Compound B4 IC50 (μmol/L), ACHN
Method: as §1

[8] = tested on: BT-474; assay: cells; conditions: Homo sapiens, BT-474, read-out: Compound B4 IC50 (μmol/L), BT-474
Method: as §1

[9] = tested on: BxPC-3; assay: cells; conditions: Homo sapiens, BXPC-3, read-out: Compound B4 IC50 (μmol/L), BxPC-3
Method: as §1

[10] = tested on: ES-2; assay: cells; conditions: Homo sapiens, ES-2, read-out: Compound B4 IC50 (μmol/L), ES-2
Method: as §1

[11] = tested on: G401; assay: cells; conditions: Homo sapiens, G-401, read-out: Compound B4 IC50 (μmol/L), G401
Method: as §1

[12] = tested on: HCT-116; assay: cells; conditions: Homo sapiens, HCT-116, read-out: Compound B4 IC50 (μmol/L), HCT-116
Method: as §1

[13] = tested on: MDA-MB-231; assay: cells; conditions: Homo sapiens, MDA-MB-231, read-out: Compound B4 IC50 (μmol/L), MDA-MB-231
Method: as §1

[14] = tested on: MIA-PaCa-2; assay: cells; conditions: Homo sapiens, MIA PaCa-2, read-out: Compound B4 IC50 (μmol/L), MIA-PaCa-2
Method: as §1

[15] = tested on: Ma-1; assay: cells; conditions: read-out: Compound B4 IC50 (μmol/L), Ma-1
Method: as §1

[16] = tested on: NIH: OV-CAR-3; assay: cells; conditions: Homo sapiens, OVCAR-3, read-out: Compound B4 IC50 (μmol/L), NIH: OV-CAR-3
Method: as §1

[17] = tested on: PA-1; assay: cells; conditions: Homo sapiens, PA-1, read-out: Compound B4 IC50 (μmol/L), PA-1
Method: as §1

[18] = tested on: SW480; assay: cells; conditions: Homo sapiens, SW480, read-out: Compound B4 IC50 (μmol/L), SW480
Method: as §1

[19] = tested on: HER2 high expression human breast cancer cells BT-474; conditions: HER2 score 3+, dose 20 mg/kg/day orally for 14 days
Method: Immediately after transplantation and day 7 after the transplantation, estradiol dipropionate (5 mg/kg solution, 50 μL) was intramuscularly administered to the hind leg with the aim of enhancing the survival rate of the tumor. HER2 expression human non-parvicellular lung cancer A549 cells were suspended in Matrigel solution and 5,000,000 cells were subcutaneously transplanted into the chest of female BALB/c nude mouse (6 weeks of age). HER2 expression human kidney cancer ACHN cells (2,000,000 cells) were subcutaneously transplanted into the chest of nude mouse. […]
(§2) An increase in the tumor volume from that before administration to that on the next day of the final administration was compared to that of the control group and an anti-tumor effect was studied. In addition, the tumor volume was calculated from the following equation: […]
(§3) A ratio of the value obtained by subtracting a tumor volume on the day of the administration initiation from the tumor volume on the next day of the completion of the administration in the control group, and the value obtained by subtracting the tumor volume on the day of the administration initiation from the tumor volume on the next day of the completion of the administration was determined as a growth rate (T/C (%)).

[20] = tested on: MDA-MB-231; conditions: breast, HER2 score 0, dose 20 mg/kg/day orally for 14 days
Method: as §2, §3

[21] = tested on: HER2 expression cells (Ma-46); conditions: 3 days, cell count
Method: (§4) 1) Cell growth inhibitory action; Each cell line was sown in a 24-well multi-well plate (5×10^4 cells/well) and cultured overnight in a carbon dioxide gas incubator (5% CO2, 37° C. ).

[22] = tested on: HER2 non-expression cells (Ma-1); conditions: 3 days, cell count
Method: as §4

[23] = tested on: HER2/EGF-R co-expression cells (A549); conditions: 3 days, cell count
Method: as §4

[24] = target: T1, HER2; assay: cell-based

T1 sequence (P04626 23-1255): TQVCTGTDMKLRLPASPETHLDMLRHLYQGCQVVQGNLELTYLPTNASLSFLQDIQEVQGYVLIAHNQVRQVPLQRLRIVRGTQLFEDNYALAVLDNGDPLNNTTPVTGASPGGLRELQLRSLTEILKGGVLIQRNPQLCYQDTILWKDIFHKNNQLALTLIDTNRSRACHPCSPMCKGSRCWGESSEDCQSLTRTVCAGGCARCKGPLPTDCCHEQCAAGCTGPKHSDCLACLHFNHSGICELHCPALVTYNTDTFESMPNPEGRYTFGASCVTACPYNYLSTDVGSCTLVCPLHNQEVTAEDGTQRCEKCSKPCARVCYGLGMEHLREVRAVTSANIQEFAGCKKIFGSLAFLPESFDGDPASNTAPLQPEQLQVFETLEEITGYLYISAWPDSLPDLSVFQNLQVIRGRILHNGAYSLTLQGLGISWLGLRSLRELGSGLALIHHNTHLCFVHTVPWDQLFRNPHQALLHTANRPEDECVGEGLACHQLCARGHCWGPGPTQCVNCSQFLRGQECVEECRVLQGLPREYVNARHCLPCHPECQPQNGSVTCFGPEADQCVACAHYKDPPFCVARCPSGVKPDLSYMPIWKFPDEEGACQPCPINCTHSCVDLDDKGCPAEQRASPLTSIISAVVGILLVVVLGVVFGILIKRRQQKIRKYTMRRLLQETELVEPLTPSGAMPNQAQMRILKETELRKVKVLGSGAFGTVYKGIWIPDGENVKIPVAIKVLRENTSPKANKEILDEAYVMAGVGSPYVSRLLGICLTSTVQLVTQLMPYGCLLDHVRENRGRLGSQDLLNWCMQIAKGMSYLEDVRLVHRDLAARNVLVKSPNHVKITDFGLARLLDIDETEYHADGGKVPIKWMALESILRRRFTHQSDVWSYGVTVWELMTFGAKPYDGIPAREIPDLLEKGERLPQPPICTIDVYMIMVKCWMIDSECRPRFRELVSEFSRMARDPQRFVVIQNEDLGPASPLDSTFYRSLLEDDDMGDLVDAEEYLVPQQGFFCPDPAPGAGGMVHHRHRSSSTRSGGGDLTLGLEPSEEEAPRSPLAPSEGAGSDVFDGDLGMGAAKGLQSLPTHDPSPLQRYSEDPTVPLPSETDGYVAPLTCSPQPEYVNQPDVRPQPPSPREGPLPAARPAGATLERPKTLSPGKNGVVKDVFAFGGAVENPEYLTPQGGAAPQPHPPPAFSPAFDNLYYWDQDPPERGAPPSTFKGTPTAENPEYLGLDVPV
Src, sequence (P12931 2-536 limits assumed): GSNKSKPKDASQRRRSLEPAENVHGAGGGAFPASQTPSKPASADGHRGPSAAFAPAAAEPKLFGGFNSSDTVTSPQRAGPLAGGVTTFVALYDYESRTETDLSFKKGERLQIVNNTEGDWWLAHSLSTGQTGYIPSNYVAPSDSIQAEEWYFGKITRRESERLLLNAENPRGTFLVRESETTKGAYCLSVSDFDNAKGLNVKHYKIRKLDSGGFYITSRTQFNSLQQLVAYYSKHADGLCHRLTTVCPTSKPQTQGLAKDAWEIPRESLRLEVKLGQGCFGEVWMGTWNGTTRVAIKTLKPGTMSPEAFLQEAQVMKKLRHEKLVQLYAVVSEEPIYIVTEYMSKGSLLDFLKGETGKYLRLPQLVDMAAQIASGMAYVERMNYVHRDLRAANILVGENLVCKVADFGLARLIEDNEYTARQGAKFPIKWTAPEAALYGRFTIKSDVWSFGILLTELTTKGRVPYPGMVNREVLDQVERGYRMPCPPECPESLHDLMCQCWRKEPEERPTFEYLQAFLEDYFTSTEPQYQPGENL

`FC(F)(F)c1ccc(/C=C/c2nc(COc3ccc(CCCCn4ccnn4)cc3)co2)cc1` [Compound B4, 1-(4-{4-[(2-{(E)-2-[4-(trifluoromethyl)phenyl]ethenyl}-1,3-oxazol-4-yl)methoxy]phenyl}butyl)-1H-1,2,3-triazole] was tested. Which IC50 [1] did it give?
The IC50 was greater than 25000 nM.

What about the cell death induction [2] of the same compound?
Its cell death induction is “induced cell death”.

What about the inhibition at 20 mg/kg ([3]; BT-474, mouse, po, read-out: intra-tumor HER2 phosphorylation, % inhibition) of the same compound?
Its inhibition at 20 mg/kg is 87%.

And the “intra-tumor HER2 phosphorylation (per tumor weight), % of the control group” value ([3]; BT-474 nude mice, 20 mg/kg/day orally 14 days then 10 mg/kg, tumor sampled four hours later)?
Its value is 13%.

What about the “reduction of tumor volume” value [4] of the same compound?
Its value is 13-30%.

And the IC50 [5]?
Its IC50 is greater than 25 µmol/L.

What about the IC50 [6] of the same compound?
The IC50 was 0.008 µmol/L.

And the IC50 [7]?
Its IC50 is 0.14 µmol/L.

And the IC50 [8]?
The IC50 was 0.05 µmol/L.

And the IC50 [9]?
The IC50 was greater than 25 µmol/L.

What about the IC50 [10] of the same compound?
The IC50 was 12 µmol/L.

What about the IC50 [11] of the same compound?
The IC50 was less than 0.05 µmol/L.

And the IC50 [12]?
Its IC50 is less than 0.05 µmol/L.

And the IC50 [13]?
Its IC50 is greater than 25 µmol/L.

What about the IC50 [14] of the same compound?
Its IC50 is 0.02 µmol/L.

What about the IC50 [15] of the same compound?
Its IC50 is greater than 25 µmol/L.

What about the IC50 [16] of the same compound?
Its IC50 is 0.06 µmol/L.

What about the IC50 [17] of the same compound?
The IC50 was less than 0.05 µmol/L.

And the IC50 [18]?
Its IC50 is greater than 25 µmol/L.

What about the “T/C (%), BT-474” value [19] of the same compound?
The value was −18%.

And the “T/C (%), MDA-MB-231” value [20]?
The value was 87%.

What about the “cell growth inhibitory action on Ma-46” value [21] of the same compound?
The value was “strong cell growth inhibitory action”.

And the “cell growth inhibitory action on Ma-1” value [22]?
The value was “did not show a cell growth inhibitory action”.

What about the “cell growth inhibitory action on A549” value [23] of the same compound?
Its value is “strong cell growth inhibitory action”.

And the IC50 [24]?
The IC50 was 4 nM.

Source: patent publication US20040116330A1, “Preventive/therapeutic method for cancer” (priority 2001, published 2004)
